In patent US20240366648A1, “NAD-AUGMENTATION THERAPY FOR PARKINSON'S DISEASE” (Vestlandets Innovasjonsselskap AS (VIS), priority 2021, published 2024):

Columns and labels:
NAD metabolome in CSF = experiment: CSF metabolomics (LC-MS); format: in vivo, human; details: all NR-recipients; oral NR 1000 mg/day, 30 days
Protocol: Biological material was collected at both visits, following a minimum 6-hour fasting and within 6 hours after study drug intake for visit 2. Sampling included whole blood, serum, peripheral blood mononuclear cells (PBMCs), cerebrospinal fluid (CSF) and muscle biopsy. Lumbar puncture was performed according to standard clinical procedures to collect 10 ml CSF. Needle biopsy of the vastus lateralis muscle was performed using a Bard Magnum biopsy gun (BD©, United States) and 12G×10 cm biopsy needles. Muscle biopsies were immediately dissected to remove any non-muscle tissue (e.g., fat or fascia) and snap-frozen in liquid nitrogen.
The extraction of metabolites from CSF samples was carried out as follows: 400 μl of each sample were mixed with 1600 μl of ice-cold UHPLC grade methanol. […] Recovery rate was tested for several relevant nucleotides and determined to be 93-96%, depending on the nucleotide.
Metabolite analysis was conducted using a Dionex UltiMate 3000 instrument coupled with an electrospray ionization (ESI) QExactive mass spectrometer (Thermo Scientific). […] Mass spectra were recorded using targeted single ion monitoring with an isolation window of 10 m/z with automatic gain control set to a target of […] and a maximum accumulation time of 300 ms. […] Absolute concentrations were calculated by external calibration curves using pure standards. […]

healthy individuals = details: cited from earlier work
total NAD in PBMCs = experiment: NAD measurement in PBMCs, NADMed method; format: in vivo, human
Text: In addition to these analyses, we measured NAD levels in patient PBMC using a different approach (NADMed method). […] However, the trend was clear and convincing.
FIG. 16: NAD measurement in PBMCs from the study cohort, using the NADMed method.

NC(=O)c1ccc[n+]([C@@H]2O[C@H](CO)[C@@H](O)[C@H]2O)c1 [NR, nicotinamide riboside]
CSF Me-2-PY levels (NAD metabolome in CSF): increase
oral bioavailability in humans (healthy individuals; Trammell et al. 2016): good oral bioavailability
total levels of NAD and related metabolites in blood and muscle (healthy individuals; healthy individuals, oral 1000 mg NR daily): substantially elevates
NAD levels in PBMC, between visits (total NAD in PBMCs; NR group, did not reach statistical significance in paired t-test): increase
between visit change in PBMC NAD levels, NR vs placebo group (total NAD in PBMCs; p=0.0256): significantly higher increase
